Laboratory results from patent publication US5770363A, “Methods for diagnosing human male infertility” (priority 1995, dated 1998).
Values joined by “and” are separate entries in the source; they are usually repeats but may differ in a detail not shown here. Identical values can stand only once. “Also recorded” adds a separate entry of the source.

Tests used:
[1] = tested on: permeabilized human sperm; experiment: DTT (XEIM) pretreatment of permeabilized human sperm before HSAA; type: cell-based; details: 50 mM DTT in XEIM, 45 minutes on ice
Experimental: On the day that the diagnostic method is to be performed, the samples are incubated for 30 minutes at 37° C.; each sample is then suspended in 10 ml of nuclear isolation medium (NIM, 200 mM sucrose, 2.4 mM MgCl2, 10 mM Tris-Hcl and 5 mM maleic acid, pH 7.4). A sperm count is taken and an aliquot (containing 20 million sperm) is pelleted in a centrifuge for 10 minutes at 400×g, then resuspended in 10 ml of NIM containing 0.05% lysolecithin and 1 μg/ml soybean trypsin inhibitor. The mixture is kept at room temperature for 5 minutes and the sperm repelleted as before, then washed, first in NIM with 3% BSA and then with NIM containing 0.4% BSA, as described by Lohka and Masui^1. Sperm will finally be suspended in Xenopus Extract Isolation Medium (XEIM, 10 mM Tris-HCL, pH 7.5, 1.5 mM MgCl2, 100 mM KCl and 50 mM DTT) at a concentration of 25,000 sperm/μl and kept on ice (between 0° C. and 4° C.) for 45 minutes before mixing with the frog egg extract. […] Such may be the result of reducing the protamines that in mammalian sperm are cross-linked by intermolecular disulfide bonds.^67 […]

male reproductive system = details: in vivo; cited from earlier work
[2] = tested on: human sperm nuclei (chromatin decondensation); experiment: Human sperm activation assay (HSAA): chromatin decondensation of chemically treated, permeabilized human sperm in Xenopus laevis egg extract; type: cell-based; details: for effect on sperm chromatin decondensation, in words (SEGS): SEGS-treated human sperm in vitro; for effect on decondensation, in words (hydroxylamine alone): 5 μM hydroxylamine; for reversal of SEGS crosslinks / restoration of decondensation, in words: SEGS-treated sperm, then hydroxylamine
human sperm nuclei [3] = details: extract containing aphidicolin; cited from earlier work
DNA polymerase alpha = details: cited from earlier work
human sperm nuclei [4] = experiment: HSAA with frog egg extract ± aphidicolin (decondensation, recondensation, DNA synthesis of sperm nuclei); type: cell-based
Experimental: A HSAA will be set up using normal control sperm. After addition of the sperm to the egg extract containing BrdUrd (10 μM, 92) in place of ^3 H-TTP, aliquots will be taken at 15 minute time intervals throughout the 3 hours of the HSAA, with cytopreps made as previously described. However, instead of performing autoradiography, the BrdUrd staining protocol of Royere et al (1988)^131, which reference is specifically incorporated herein by reference for this purpose, will be used. The cytopreps will be fixed in cold methanol-acetic acid (3:1 v/v) followed by an RNase treatment.
The procedure requires that the DNA be partially denatured to expose incorporated BrdUrd to the specific antibody. The anti-BrdUrd antibodies that have been developed so far only bind BrdUrd in single-stranded DNA. The DNA-denaturing step will be done by placing the cytoprep slides in Copeland jars containing distilled water at 95° C. for 10 minutes. The slides will then be transferred into Copeland jars containing ice cold distilled water for 2 minutes and the sperm nuclei stained using anti-BrdUrd antibody (Boehringer Mannheim, mouse IgG) in PBS as the manufacturer's recommended dilution, followed by rhodamine-conjugated Goat anti-mouse IgG. The stained nuclei will be analyzed individually in our image analysis system.
Aphidicolin is described in Ikegami et al (1978)^101. This study will use sperm shown previously to respond normally in the HSAA.
Fluorescence intensities will be determined as previously described and plotted as fluorescence units above background fluorescence.
We will run a duplicate HSAA±aphidicolin (10 μg/ml), except minus tritiated thymidine triphosphate. After incubation, the sperm will be washed in PBS, fixed with 70% ethanol, centrifuged, and the fixative removed. The sperm will be resuspended in one volume of pretreatment solution (0.2M citric acid and 0.5% Tween 20) and incubated at RT for 20 minutes with gentle shaking. Subsequently, 9 volumes of the staining solution containing […] hydrogen phosphate and 5 μM 4', 6-diamidino-2-phenylindole (DAPI) will be added to raise the pH to ~7.0 and stain the DNA. The stained cells are stable for 24-48 hours, so can be shipped and/or transported by PI to Dr. Manimekalai's Laboratory where we will obtain flow cytometric histograms of the DNA content of the sperm nuclei. […] Estimated DNA synthesis for the sperm nuclei incubated in extract containing aphidicolin will be determined, and determine if it is in the 20-30% range (observed using the autoradiographic approach) when compared to the estimated DNA synthesis for the sperm nuclei incubated in extract without aphidicolin. […] Staining approaches that can be followed by quantitative flow cytometry include the use of Hoechst 33342 (64) and acridine orange (96).

rats = details: cited from earlier work

SMILES: O[C@H](CS)[C@H](O)CS (racemic) [DTT, Dithiothreitol]
- effect of pretreatment on decondensation and DNA synthesis events [1]: enhance the decondensation and DNA synthesis "activation" events

SMILES: CS(=O)(=O)OCCCCOS(C)(=O)=O [Busulfan]
- male reproductive toxicity, in words (male reproductive system): kills reserve and differentiating operamatogonia and reserve stem cell populations in the testis

SMILES: O=C(CCC(=O)ON1C(=O)CC(S(=O)(=O)O)C1=O)OCCOC(=O)CCC(=O)ON1C(=O)CC(S(=O)(=O)O)C1=O (stereo not drawn) [SEGS]
- inhibition at 3400 µM ([2]; Homo sapiens, Sperm, 3.4 mM SEGS, read-out: sperm in which decondensation was prevented): > 75%
- effect on sperm chromatin decondensation, in words (SEGS) [2]: abnormal decondensation responses; also recorded: abnormal chromatin decondensation; also recorded: did not decondense; also recorded: do not decondense
- effect on sperm chromatin decondensation, in words (SEGS) ([2]; listed as SULFO-EGS): block decondensation
- level to which decondensation is inhibited ([2]; as low as, permeabilized sperm): 20 % of the control

SMILES: O=C(O)c1cc(/N=N/c2ccc(S(=O)(=O)Nc3ccccn3)cc2)ccc1O [Sulfasalazine]
- male reproductive toxicity, in words (male reproductive system): reduced sperm count and fertilizing capability affected in treated patients

SMILES: C[C@@]1(CO)[C@H](O)CC[C@@]2(C)[C@H]1CC[C@H]1C[C@@H]3C[C@@]12CC[C@]3(O)CO [aphidicolin]
- DNA synthesis (previously demonstrated, ref. 17) (human sperm nuclei [3]): blocked
- decondensation of sperm nuclei (previously demonstrated, ref. 17) (human sperm nuclei [3]): normal
- recondensation of sperm nuclei (previously demonstrated, ref. 17) (human sperm nuclei [3]): normal
- inhibition of DNA polymerase alpha (DNA polymerase alpha): known inhibitor of DNA polymerase alpha
- % labelled nuclei in extract containing aphidicolin / % labelled nuclei without aphidicolin × 100, expected (human sperm nuclei [4]; aphidicolin 10 μg/ml, 2 hours, autoradiography): 20-30%
- DNA synthesis (human sperm nuclei [4]; extract containing aphidicolin): blocked
- decondensation of sperm nuclei (human sperm nuclei [4]; extract containing aphidicolin): normal
- recondensation of sperm nuclei (human sperm nuclei [4]; extract containing aphidicolin): normal

SMILES: O=P1(N(CCCl)CCCl)NCCCO1 (stereo not drawn) [cyclophosphamide]
- effect on pre- and postimplantation loss (rats): increasing pre- and postimplantation loss
- decondensation of sperm from treated rats (rats; six weeks treatment): do not decondense

SMILES: NO [hydroxylamine]
- effect on decondensation, in words (hydroxylamine alone) [2]: normal decondensation; also recorded: no effect on decondensation
- sperm decondensed, hydroxylamine given alone ([2]; 5 μM hydroxylamine 5 hours, pH 8.5, 15 minutes in the extract): 92.0±2.8%
- effect on decondensation, in words (hydroxylamine alone) ([2]; listed as Hydroxylamine): no effect
- sperm decondensed after crosslinking with SEGS and then treatment with hydroxylamine ([2]; 3.4 mM SEGS 30 min, then 5 μM hydroxylamine 5 hours, 15 minutes in the extract): 76% and 76.0±5.9%
- reversal of SEGS crosslinks / restoration of decondensation, in words [2]: restored, normal decondensation; also recorded: able to remove the crosslinker; also recorded: able to reverse most of the crosslinks; also recorded: reversed the damage
- reversal of SEGS crosslinks / restoration of decondensation, in words ([2]; listed as Hydroxylamine): restore normal decondensation
- effect on decondensation, in words (higher hydroxylamine concentrations) ([2]; hydroxylamine higher than 5 μM): adverse effect on decondensation
